These results are taken from ChEMBL document CHEMBL3352687, “Synthesis of N-glycan units for assessment of substrate structural requirements of N-acetylglucosaminyltransferase III” (Bioorg Med Chem Lett, 2014).

Activity calls are given as the source filed them. The rule behind the calls is not given here.

The nature of this assay: Competitive inhibition of human N-terminally His6-tagged N-acetylglucosaminyltransferase 3 expressed in HEK293T cells assessed as GN-GnGnbi-PAs molar ratio level at 100 to 500 uM incubated for 4 hrs using GnGnbi-PA acceptor substrate and UDP-GlcNAc donor substrate by reverse phase HPLC method. The note with it: HEK-293T.
Turning to `CO[C@H]1O[C@H](CO[C@H]2O[C@H](CO)[C@@H](O)[C@H](O)[C@@H]2O)[C@@H](O)[C@H](O[C@H]2O[C@H](CO)[C@@H](O)[C@H](O)[C@@H]2O)[C@@H]1O`, the inhibition entry is “inactive”.

As for `CO[C@H]1O[C@H](CO[C@H]2O[C@H](CO)[C@@H](O)[C@H](O)[C@@H]2O)[C@@H](O[C@@H]2O[C@H](CO)[C@@H](O)[C@H](O)[C@H]2NC(C)=O)[C@H](O[C@H]2O[C@H](CO)[C@@H](O)[C@H](O)[C@@H]2O)[C@@H]1O`, the inhibition result is “inactive”.

`CO[C@H]1O[C@H](CO[C@H]2O[C@H](CO)[C@@H](O)[C@H](O)[C@@H]2O[C@@H]2O[C@H](CO)[C@@H](O)[C@H](O)[C@H]2NC(C)=O)[C@@H](O)[C@H](O[C@H]2O[C@H](CO)[C@@H](O)[C@H](O)[C@@H]2O[C@@H]2O[C@H](CO)[C@@H](O)[C@H](O)[C@H]2NC(C)=O)[C@@H]1O`: the inhibition result was “Active”.

On to `CO[C@H]1O[C@H](CO[C@H]2O[C@H](CO)[C@@H](O)[C@H](O)[C@@H]2O[C@@H]2O[C@H](CO)[C@@H](O)[C@H](O)[C@H]2NC(C)=O)[C@@H](O[C@@H]2O[C@H](CO)[C@@H](O)[C@H](O)[C@H]2NC(C)=O)[C@H](O[C@H]2O[C@H](CO)[C@@H](O)[C@H](O)[C@@H]2O[C@@H]2O[C@H](CO)[C@@H](O)[C@H](O)[C@H]2NC(C)=O)[C@@H]1O`, for which the inhibition entry was “Active”.
